Where two headings read alike, the source gives them in different places. Blank lines part the entries; values can stand above or below the compound they belong to.
Legend:
[1] = system: recombinant human macrophage migration inhibitory factor (MIF)-induced proliferation of S112 human dermal fibroblasts; test: MIF-induced proliferation of S112 human dermal fibroblasts, 3H-thymidine incorporation; type: cell-based
Method: The activity of each compound was studied in a bioassay utilising MIF-induced proliferation of human dermal fibroblasts. S112 human dermal fibroblasts were propagated in RPMI/10% foetal calf serum (FCS). Prior to experimentation, cells were seeded at 10^5 cells/ml in RPMI/0.1% BSA for 18 hours. At time point zero, culture medium was replaced with RPMI/10% FCS and treatments administered. Cells were treated with recombinant human macrophage migration inhibitory factor (MIF) 50 ng/ml (1.353×10^−9 M) and/or the compound at a 1 or 1000 molar ratio to the concentration of MIF. In some experiments the compound was combined with MIF at time point −30 minutes, prior to adding at time point zero. At time point 30 hours, cells were pulsed with […]. At time point 48 hours, cells were harvested using a semi-automated cell harvester. The radioactivity incorporated into DNA was determined by liquid scintillation counting, with results expressed as [^3H] thymidine incorporation. The proliferation of untreated cells was expressed as 100% and the effect of MIF and each compound expressed in relative %.
The activity of compound 5 was studied in a bioassay utilising MIF-induced proliferation of human dermal fibroblasts. S112 human dermal fibroblasts were propagated in RPMI/10% foetal calf serum (FCS). Prior to experimentation, cells were seeded at 10^5 cells/ml in RPMII/0.1% BSA for 18 hours. At time point zero, culture medium was replaced with RPMI/10% FCS and treatments administered. Cells were treated with recombinant human macrophage migration inhibitory factor (MIF) 50 ng/ml and/or compound 5 at a 1-1000 molar ratio to the concentration of MIF. At a time point 30 hours later, cells were pulsed with 1 μCi/well of ^3H-thymidine. At a time point 48 hours after commencement of the experiment, cells were harvested using a semi-automated cell harvester. The radioactivity incorporated into DNA was determined by liquid scintillation counting, with results expressed as [^3H] thymidine incorporation.

[2] = system: IL-1-induced COX-2 expression; test: IL-1-induced COX-2 expression in S112 human dermal fibroblasts (MIF-dependent event), flow cytometry; type: cell-based; details: Homo sapiens, Fibroblast, IL-1 0.1 ng/ml, 6 hours, S112 cells, read-out: % inhibition of IL-1-induced COX2 expression (Effect)
Method: The activity of each compound was studied in a bioassay utilising MIF-dependent activation of human dermal fibroblasts. […] IL-1-induced COX-2 expression is therefore a MIF-dependent event. […] Prior to experimentation, cells were seeded at 10^5 cells/ml in RPMI/0.1% BSA for 18 hours. […] Cells permeabilised with 0.1% saponin were sequentially labelled with a mouse anti-human COX-2 monoclonal antibody and with sheep-anti-mouse F(ab)2 fragment labelled with fluoroscein isothiocyanate. Cellular fluorescence was determined using a flow cytometer. At least 5000 events were counted for each reading, each of which was performed in duplicate, and the results expressed in mean fluorescence intensity (MFI) after subtraction of negative control-labelled cell fluorescence. The effect of each compound was determined by subtracting the IL-1+compound-treated cell MFI from the IL-1-treated cell MFI and expressed as % inhibition. In each case the % inhibition of IL-1-induced COX2 expression is shown as the mean, or mean±SEM where results are available from multiple experiments.

[3] = system: rat adjuvant-induced arthritis (AIA) model; test: rat adjuvant-induced arthritis (AIA) model; type: in vivo, Sprague-Dawley rats; details: 1.0 mg/kg once daily intraperitoneal
Method: The activity of each compound was studied in the rat adjuvant-induced arthritis (AIA) model of rheumatoid arthritis. […] Male Sprague-Dawley rats (150±20 g) were used. Adjuvant artritis was induced by intradermal injection at the tail base of […] of a 10 mg/ml suspension of heat-inactivated Mycobacterium tuberculosis (Difco, Detroit, Mich.) in squalane. The compound was administered at a dose of 1.0 mg/kg body weight by once daily intraperitoneal injection on each day (treated). Control animals received an identical volume injection of vehicle (control). Joint inflammation in adjuvant arthritis was assessed clinically as follows: • i) Articular index/score: A score of 0 (no observable erythema or swelling) to 4 (severe swelling and erythema) was given for each paw. All four paws were scored, resulting in a maximum possible score of 16 for each animal (34). • ii) Synovial fluid cell number: Joints were exposed by removal of overlying skin, needle arthrocentesis performed and joint space cells obtained by closed needle lavage with 2 ml saline using a 26 gauge needle and syringe. Lavaged cells from both ankle joints were pooled, washed in saline (300 g for 5 minutes), and counted in a hemocytometer (Improved Nebauer, Weber, UK) (34).

[4] = system: antigen-specific T cell activation (splenic T lymphocytes from mBSA-immunised mice); test: antigen-specific (mBSA) activation of splenic T lymphocytes in vitro, 3H-thymidine incorporation; type: cell-based, C57BL6/J mice; details: for EC50: read-out: EC50 (T cell activation suppressed by 50% compared to vehicle-only-treated cells)
Method: After a further seven (7) days mice were killed and spleens collected aseptically into Hanks buffered saline solution (HBSS). A single cell suspension was prepared in Petri dishes by flushing DMEM through the organ using a 26G needle and 2 mL syringe. The resulting cell suspension was centrifuged for 5-7 minutes and supernatant discarded. Erythrocytes were lysed using a solution containing 0.579% NH4Cl, 0.000037% EDTA, and 0.1% NaHCO3 in a 37° C. water bath. Tubes were then filled with DMEM and centrifuged for 5-7 minutes. […] The specific stimulating antigen, mBSA, was then added at 10-50 μg/mL and plates incubated for 30 hours in a 37° C., 5% CO2 incubator. Tritiated^3H-thymidine was then added at a concentration of 0.5 μCi/well for a further 18 hours. Cells were harvested on a Packard cell harvester, and the harvested material added to 750 μL/tube scintillation fluid. Scintillation counts were read on a Wallac beta-emnission counter. […] Further compounds were also tested for their ability to inhibit antigen-specific T cell activation as a marker of the inhibition of the cytokine or biological activity of MIF using this assay.

[5] = system: murine peritoneal macrophage nitric oxide production; test: murine peritoneal macrophage nitric oxide production (nitrite, Greiss assay); type: cell-based, C57BL6/J mice; details: Mus musculus, LPS 10 ng/ml and interferon-γ 10 units/ml, 24 hours, read-out: % Nitrite concentration inhibition from control
Method: C57BL6/J male mice were injected intraperitoneally with 2ml of thioglycollate. Five (5) days later peritoneal macrophages were collected by ravaging the peritoneum of anaesthetized mice with 3 ml of cold Hanks buffered saline solution. Cells from several mice were pooled, washed and re-suspended in DMEM supplemented with 5% FCS. Cells were plated in 96 well plastic tissue culture plates at 1×10^5 cells/well. Cells were treated with compound or vehicle for 1 hour in a 5% CO2 incubator at 37° C. Cells were then treated with LPS (10 ng/ml) and recombinant human interferon-γ (10 units/ml) and incubated for 24 hours. After 24 hours, 50 μl of supernatant from each well was carefully removed and transferred to ELISA plates. The concentration of nitrite in culture supernatants was measured by the Greiss assay (41). The results were defined as the percentage inhibition of nitrite concentration in compound-treated cell culture supernatants compared to that of vehicle-treated cells.

[6] = system: murine endotoxic shock model (LPS); test: murine endotoxic shock model, serum cytokines by ELISA; type: in vivo; details: mice
Method: The activity of 6,7-dihydroxynaphthalene-3-sulfonic acid (compound 6) was studied in the murine endotoxic shock model. This model has been previously shown to be dependent on MIF (35). […] Endotoxaemia was induced by intra-peritoneal injection of lipopolysaccharide (LPS) (15 mg/kg) in 400 μl saline. Mice were treated with a saline solution (control) only, a saline solution and LPS, or LPS and 6,7-dihydroxynaphthalene-2-sulfonic acid (compound 6) at a dose of 15 mg/kg body weight by intra-peritoneal injection at 24 hours, 12 hours and 1 hour before intra-peritoneal LPS injection. After 1.5 or 6 hours mice were humanely killed by CO2 inhalation then neck dislocation. Serum was obtained from blood obtained by cardiac puncture prior to death and measured for cytokines including interleukin 1 (IL-1) and interleukin 6 (IL-6) by ELISA. The production of IL-1 and IL-6 has been previously shown to be dependent on MIF (36).
The effect of compounds was further tested under a variety of conditions in animals exposed to endotoxic shock induced as above by the injection of 15 mg/kg LPS by intraperitoneal injection. In each case, compounds were administered by intraperitoneal injection at a dose of 15 mg/kg. Compound administration was associated with reductions in serum cytokine concentration under a variety of administration regimens.

[7] = system: murine antigen-induced arthritis; test: murine antigen-induced arthritis, histological score; type: in vivo, C57BL6/J mice; details: 15 mg/kg i.p. once per 24 hours; histology at day 28; mice
Method: Antigen-induced arthritis was induced in mice. C57BL6/J male mice, aged 7-10 weeks old, were immunized on day 0 with 200 μg methylated BSA (mBSA) emulsified in 200 μl of Freund's complete adjuvant (FCA) injected subcutaneously into the flank skin. Mice were treated with compound 5, administered by intraperitoneal injection, once per 24 hours at a dose of 15 mg/kg body weight. After seven days, mice received 100 μg “mBSA and 100 μl FCA by intradermal injection at the base of the tail. After a further 14 days, arthritis was induced by intra-articular injection of 30 μg mBSA in 10 μl of sterile saline into the left knee, the right knee being injected with sterile saline alone.
Arthritis was analysed histologically at day 28 after first immunisation. Knee joints were dissected and fixed in 10% buffered formalin for 7 days. Fixed tissues were decalcified for 3 weeks in 15% ethylene-diamine-tetra-acetic acid (EDTA), dehydrated and embedded in paraffin. Sagittal sections (5 μm) of the knee joint were stained with Safranin-O and counterstained with fast green /iron hematoxylin. Histological sections were scored from 0 to 3 for four parameters: Synovitis was defined as hyper-cellularity of the synovium including pannus formation. Joint space exudate was identified as leukocytes, discretely or in aggregates, in the joint space. […]

[8] = Mus musculus, T-cell, mBSA 10 μg/ml
[9] = Mus musculus, T-cell, mBSA 50 μg/ml

Structure (SMILES): Oc1cc2ccccc2cc1O [Compound 1, 6,7-dihydroxynaphthalene]
inhibition at 0.13 µM ([1]; Homo sapiens, Fibroblast, concentration 0.13 μM, rhMIF 50 ng/ml, S112 cells, read-out: % inhibition of proliferation compared to vehicle plus rhMIF-treated cells): 47%

EC50 [4, 8]: 18.1 µM
EC50 [4, 9]: 52 µM
Structure (SMILES): COc1cc2ccccc2cc1OC [Compound 2, 6,7-dimethoxynaphthalene]
inhibition at 0.1 µM ([2]; compound 0.1 uM): 11.6%
arthritis severity (articular index, synovial fluid cell number; FIGS. 5 and 6) [3]: significant inhibition of arthritis severity
inhibition at 25 µM ([5]; 25 uM): 5.8%
inhibition at 50 µM ([5]; 50 uM): 8.5%
inhibition at 100 µM ([5]; 100 uM): 13.6%

EC50 [4, 8]: 2.39 µM
EC50 [4, 9]: > 100 µM
Structure (SMILES): O=C(O)c1ccc2c(S(=O)(=O)O)c(O)ccc2c1 [Compound 5, 2-carboxy-6-hydroxynaphthalene-5-sulfonic acid]
effect on MIF-induced proliferation of human dermal fibroblasts (FIGS. 1 and 2) ([1]; 1M ratio equivalent to MIF 50 ng/ml): inhibition of MIF-induced proliferation

EC50 ([4]; mBSA 10 μg/ml): 57.7 µM
EC50 ([4]; mBSA 50 μg/ml): > 100 µM
Structure (SMILES): COc1ccc2cc([C@H](C)C(=O)O)ccc2c1 [Compound 8, S-(+)-6-methoxy-α-methyl-2-naphthalene acetic acid]
% inhibition of proliferation compared to vehicle plus rhMIF-treated cells ([1]; concentration 0.013 μM, rhMIF 50 ng/ml, S112 cells): 4%
% inhibition of proliferation compared to vehicle plus rhMIF-treated cells ([1]; concentration 0.13 μM, rhMIF 50 ng/ml, S112 cells): 36%

Structure (SMILES): O=C(O)c1ccc2c([N+](=O)[O-])c(O)ccc2c1 [Compound 23, 6-hydroxy-5-nitro-2-napthoic acid]
inhibition at 10 µM ([2]; compound 10 uM): 8%
serum IL-1, LPS plus compound ([6]; compound 15 mg/kg i.p. at −16 h before LPS 15 mg/kg i.p.): 58 ± 13 ng/mL
EC50 [4, 8]: > 100 µM
EC50 [4, 9]: > 100 µM
effect on antigen-specific T cell activation (FIG. 10) ([4]; increasing concentrations, mBSA 50 μg/mL): dose-dependent and statistically significant inhibitory effect
individual parameters of arthritis (synovitis, joint space exudate, cartilage degradation, bone damage; FIG. 11b) [7]: Clinically significant reductions in the severity of all individual parameters of arthritis
total arthritis score (FIG. 11a) [7]: clinically significant reduction in total arthritis score

Structure (SMILES): O=S(=O)(O)c1ccc2cc(O)ccc2c1 [Compound 24, 6-Hydroxy-2-naphthalene-sulfonic acid]
inhibition at 1 µM ([2]; compound 1 uM): 8.2%
inhibition at 0.013 µM ([1]; Homo sapiens, Fibroblast, concentration 0.013 μM, rhMIF 50 ng/ml, S112 cells, read-out: % inhibition of proliferation compared to vehicle plus rhMIF-treated cells): 18%
Serum IL-6, LPS plus compound ([6]; compound 15 mg/kg i.p. at −24 h, −1 h before LPS 15 mg/kg i.p.): 144 ± 18 ng/mL

EC50 [4, 9]: 18 µM
Structure (SMILES): COC(=O)c1ccc2cc(OC)cc(C)c2c1 [Compound 65, Methyl 6-methoxy-8-methyl-2-napthoate ester]
inhibition at 50 µM ([2]; compound 50 uM): 50.4%

— patent US20060106102A1, “Napththalene derivatives which inhibit the cytokine or biological activity of microphage migration inhibitory factor (mif)” (priority 2002, published 2006)
